Results as given in article PMC8041284, “Tunable Methacrylamides for Covalent Ligand Directed Release Chemistry” (Journal of the American Chemical Society, 2021).

Target: BTK (Homo sapiens, UniProt Q06187)
Assay: biochemical
Conditions: read-out: BTK inhibition (%), 0.75 uM BTK, […] probe 3l, 15 min preincubation

Sequence of BTK (Q06187 402-655 limits assumed): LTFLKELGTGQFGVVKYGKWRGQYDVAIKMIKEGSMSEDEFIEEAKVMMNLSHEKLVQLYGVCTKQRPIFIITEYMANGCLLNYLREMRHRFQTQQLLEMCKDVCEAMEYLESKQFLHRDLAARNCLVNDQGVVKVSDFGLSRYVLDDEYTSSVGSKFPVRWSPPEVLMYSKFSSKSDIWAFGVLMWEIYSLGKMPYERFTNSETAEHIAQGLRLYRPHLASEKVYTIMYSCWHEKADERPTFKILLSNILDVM

SMILES	inhibition at 10 µM
CC(NC(=O)c1ccccc1N=Cc1c(O)ccc2ccccc12)c1ccccc1 (centres unmarked) [PCM-0095400]	9%
CC(=O)O[C@H]1CC(=O)OC(C)(C)[C@@H]2CC(=O)[C@]3(C)[C@H](CC[C@@]4(C)[C@H](c5ccoc5)OC(=O)[C@H]5O[C@]543)[C@@]12C [PCM-0216014]	13.9%
COc1ccc(CC(=O)O)cc1OC [PCM-0214949]	-0.8%
COc1c(O)cc2c(c1O)[C@@H]1O[C@H](CO)[C@@H](O)[C@H](O)[C@H]1OC2=O [PCM-0214672]	7%
CCCCCCCCCC(C)O (centres unmarked) [PCM-0216633]	-30.1%
C=CCc1cc(OC)c(O)c(C(=O)NCCO)c1 [PCM-0095214]	-16.3%
COc1ccc(-c2oc3c(CC=C(C)C)c(O[C@@H]4O[C@H](CO)[C@@H](O)[C@H](O)[C@H]4O)cc(O)c3c(=O)c2O[C@@H]2O[C@@H](C)[C@H](O)[C@@H](O)[C@H]2O[C@@H]2O[C@@H](C)[C@H](O)[C@@H](O)[C@H]2O)cc1 [PCM-0216512]	-13.1%
CC[C@H](NC(=O)[C@H](C)NC)C(=O)N1C[C@@H](O)C[C@H]1Cc1c(-c2[nH]c3cc(F)ccc3c2C[C@@H]2C[C@H](O)CN2C(=O)[C@H](CC)NC(=O)[C@H](C)NC)[nH]c2cc(F)ccc12 [PCM-0214572]	5.4%
CN(C)CCCN1c2ccccc2Sc2ccc(Cl)cc21 [PCM-0064436]	-16.3%
O=c1ccoc2cc(O)ccc12 [PCM-0216563]	-2.8%
CC(C)(C)NC(=O)N[C@H](C(=O)N1C[C@H]2[C@@H]([C@H]1C(=O)NC(CC1CCC1)C(=O)C(N)=O)C2(C)C)C(C)(C)C (some centres unmarked) [PCM-0214929]	8.6%
CN(C)CCc1c[nH]c2ccc(C[C@H]3COC(=O)N3)cc12 [PCM-0090594]	17.1%
CN1C(C(=O)Nc2ccccn2)=C(O)c2sc(Cl)cc2S1(=O)=O [PCM-0090258]	-0.9%
C[N+]1(C)CCC[C@H]1C(=O)[O-] [PCM-0214966]	7.8%
Nc1cccc(S(=O)(=O)N2CCCN(S(=O)(=O)c3ccc4c(c3)OCCO4)CC2)c1 [PCM-0215556]	-2.8%
O=C1C(c2c(O)[nH]c3ccccc23)=Nc2ccccc21 [PCM-0094833]	11%
CC(=O)O[C@H]1C[C@H](O[C@H]2[C@@H](O)C[C@H](O[C@H]3[C@@H](O)C[C@H](O[C@H]4CC[C@@]5(C)[C@H](CC[C@@H]6[C@@H]5C[C@@H](O)[C@]5(C)[C@@H](C7=CC(=O)OC7)CC[C@]65O)C4)O[C@@H]3C)O[C@@H]2C)O[C@H](C)[C@H]1O[C@@H]1O[C@H](CO)[C@@H](O)[C@H](O)[C@H]1O [PCM-0216197]	-4.6%
CCOC(=O)/C=C/c1ccc(O)c(O)c1 [PCM-0216571]	17.8%

The next lines start with the values.

inhibition at 10 µM	SMILES
5.4%	COc1cc2ncnc(Nc3ccc(F)c(Cl)c3)c2cc1O [PCM-0216130]
-6.2%	COc1ccccc1N1CCN(CCN(C(=O)C2CCCCC2)c2ccccn2)CC1 [PCM-0064827]
22.6%	O=C(Nc1ccccc1)Nc1ccc(-c2ccc(C(=O)[C@@H]3CCC[C@H]3C(=O)O)cc2)cc1 [PCM-0095351]
-10.8%	CN(CCNCc1cn(Cc2ccc(Cl)cc2)nn1)CCNc1ccnc2cc(Cl)ccc12 [PCM-0215895]
1.7%	NCCCC[C@H](N[C@@H](CCc1ccccc1)C(=O)O)C(=O)N1CCC[C@H]1C(=O)O [PCM-0085899]
9.7%	O=C1NC(=O)/C(=C/c2ccc3c(c2)OC(F)(F)O3)S1 [PCM-0095357]
10.2%	N[C@@H](CCC(=O)O)C(=O)O [PCM-0215690]
-1.6%	Cc1onc(-c2c(F)cccc2Cl)c1C(=O)N[C@@H]1C(=O)N2[C@@H]1SC(C)(C)[C@@H]2C(=O)O [PCM-0216122]
34.2%	CC(C)n1cnc2c(NCCc3ccc(O)cc3)nc(-c3csc4ccccc34)nc21 [PCM-0095500]
-21.8%	O=C(O)/C=C/c1ccc(O)c(O)c1 [PCM-0064590]
-3.1%	O=C(O)COc1nn(Cc2ccccc2)c2ccccc12 [PCM-0216238]
